Experimental data from EP4098265A1 (priority 2020, dated 2021).
In brackets after ≈: the same amount, converted by molar mass. Read-outs that look alike come from different tables or passages of the source.

What was measured:
MRC-5 cells = conditions: human
HCoV-OC43 [1] = assay: Anti-HCoV-OC43 activity in HCT-8 cells (CPE method); assay type: cell-based
HCoV-OC43 [2] = assay: Anti-HCoV-OC43 activity in MRC-5 cells (CPE method); assay type: cell-based; conditions: for IC50: Betacoronavirus 1, OC43, MRC5, 0 h
HCT-8 cells = conditions: human
HCoV-229E = assay: Anti-HCoV-229E activity in Huh7.5 cells (CPE method); assay type: cell-based; conditions: Human coronavirus 229E
[3] = system: Middle East Respiratory Syndrome Coronavirus (MERS-CoV); assay type: cell-based; conditions: in vitro
[4] = system: severe acute respiratory syndrome coronavirus SARS-CoV; assay type: cell-based; conditions: in vitro
2019-nCoV = assay: Anti-2019-nCoV activity in Vero E6 cells (CPE); conditions: in words
PI3K/Akt/mTOR pathway = assay type: cell-based
human coronavirus HKU1 = assay type: cell-based
[5] = system: human coronavirus NL63(HCoV-NL63); assay type: cell-based
[6] = system: coronaviruses (HCoV-229E and HCoV-OC43); assay: CPE experiment on coronaviruses, single components compared with carrimycin; assay type: cell-based; conditions: above CPE method
[7] = 0h: administration at the same time of infection, read-out: IC50, First batch
[8] = 0h: administration at the same time of infection, read-out: IC50, Second batch
[9] = 2h: administration 2 hours after infection, read-out: IC50, First batch
[10] = 2h: administration 2 hours after infection, read-out: IC50, Second batch

CC[C@H]1OC(=O)[C@H](C)[C@@H](O[C@H]2C[C@@](C)(OC)[C@@H](O)[C@H](C)O2)[C@H](C)[C@@H](O[C@@H]2O[C@H](C)C[C@H](N(C)C)[C@H]2O)[C@](C)(O)C[C@@H](C)CN(C)[C@H](C)[C@@H](O)[C@]1(C)O [Azithromycin]
TC50 (MRC-5 cells): 48.07 µg/mL (≈ 64.2 µM) | IC50 (HCoV-OC43 [1]; Betacoronavirus 1, OC43, HCT-8 cells, 0h administration, read-out: IC50): > 100 µg/mL | inhibitory effect on the HCoV-OC43 (HCoV-OC43 [1]; HCT-8 cells, 0h administration, in words): no inhibitory effect | IC50 (HCoV-OC43 [2]): > 11.1 µg/mL | inhibitory effect on the HCoV-OC43 (HCoV-OC43 [2]; MRC-5 cells, 0h administration, in words): no inhibitory effect | TC50 (HCT-8 cells): >100 µg/mL | IC50 (HCoV-229E; [7]): 14.3 µg/mL (≈ 19.1 µM) | IC50 (HCoV-229E; [8]): 19.2 µg/mL (≈ 25.7 µM) | IC50 (HCoV-229E; [9]): 14.3 µg/mL (≈ 19.1 µM) | IC50 (HCoV-229E; [10]): 4.77 µg/mL (≈ 6.37 µM)

CO[C@@H]1[C@@H](O[C@@H]2O[C@H](C)[C@@H](O[C@H]3C[C@@](C)(O)[C@@H](OC(=O)CC(C)C)[C@H](C)O3)[C@H](N(C)C)[C@H]2O)[C@@H](CC=O)C[C@@H](C)[C@@H](O[C@H]2CC[C@H](N(C)C)[C@@H](C)O2)/C=C/C=C/C[C@@H](C)OC(=O)C[C@H]1O [Isovalerylspiramycin I, isovalerylspiramycin I]
inhibition activity compared with ribavirin or azithromycin [3]: higher than the inhibition activity of ribavirin or azithromycin | inhibition activity compared with ribavirin or azithromycin [4]: higher than the inhibition activity of ribavirin or azithromycin | anti-2109-nCoV activity in vitro (2019-nCoV): anti-2109-nCoV activities in vitro | anti-inflammatory and immunomodulatory effects on PI3K/Akt/mTOR pathway (PI3K/Akt/mTOR pathway): inhibit the PI3K/Akt/mTOR pathway | inhibition activity compared with ribavirin or azithromycin (human coronavirus HKU1): higher than the inhibition activity of ribavirin or azithromycin | inhibition activity compared with ribavirin or azithromycin [5]: higher than the inhibition activity of ribavirin or azithromycin | inhibition activity compared with carrimycin [6]: higher than the inhibition activity of carrimycin

NC(=O)c1ncn([C@@H]2O[C@H](CO)[C@@H](O)[C@H]2O)n1 [RBV, Ribavirin]
TC50 (MRC-5 cells): >100 µg/mL | IC50 (HCoV-OC43 [1]; Betacoronavirus 1, OC43, HCT-8, 0 h): 11.1 µg/mL (≈ 45.5 µM) | IC50 (HCoV-OC43 [2]): 63.8 µg/mL (≈ 261 µM) | TC50 (HCT-8 cells): >100 µg/mL | IC50 (HCoV-229E; [7]): 6.42 µg/mL (≈ 26.3 µM) | IC50 (HCoV-229E; 0h: administration at the same time of infection, read-out: IC50, Mean value): 7.06 ± 0.91 µg/mL (≈ 28.9 µM) | IC50 (HCoV-229E; [8]): 7.7 µg/mL (≈ 31.5 µM) | IC50 (HCoV-229E; [9]): 7.7 µg/mL (≈ 31.5 µM) | IC50 (HCoV-229E; [10]): 4.77 µg/mL (≈ 19.5 µM)

CCC(=O)O[C@@H]1CC(=O)O[C@H](C)C/C=C/C=C/[C@H](O[C@H]2CC[C@H](N(C)C)[C@@H](C)O2)[C@H](C)C[C@H](CC=O)[C@H](O[C@@H]2O[C@H](C)[C@@H](O[C@H]3C[C@@](C)(O)[C@@H](OC(=O)CC(C)C)[C@H](C)O3)[C@H](N(C)C)[C@H]2O)[C@H]1OC [isovalerylspiramycin III]
inhibition activity compared with ribavirin or azithromycin [3]: higher than the inhibition activity of ribavirin or azithromycin | inhibition activity compared with ribavirin or azithromycin [4]: higher than the inhibition activity of ribavirin or azithromycin | anti-2109-nCoV activity in vitro (2019-nCoV): anti-2109-nCoV activities in vitro | anti-inflammatory and immunomodulatory effects on PI3K/Akt/mTOR pathway (PI3K/Akt/mTOR pathway): inhibit the PI3K/Akt/mTOR pathway | inhibition activity compared with ribavirin or azithromycin (human coronavirus HKU1): higher than the inhibition activity of ribavirin or azithromycin | inhibition activity compared with ribavirin or azithromycin [5]: higher than the inhibition activity of ribavirin or azithromycin | inhibition activity compared with carrimycin [6]: close to the inhibition activities of carrimycin

isovalerylspiramycin II
inhibition activity compared with ribavirin or azithromycin [3]: higher than the inhibition activity of ribavirin or azithromycin | inhibition activity compared with ribavirin or azithromycin [4]: higher than the inhibition activity of ribavirin or azithromycin | anti-2109-nCoV activity in vitro (2019-nCoV): anti-2109-nCoV activities in vitro | anti-inflammatory and immunomodulatory effects on PI3K/Akt/mTOR pathway (PI3K/Akt/mTOR pathway): inhibit the PI3K/Akt/mTOR pathway | inhibition activity compared with ribavirin or azithromycin (human coronavirus HKU1): higher than the inhibition activity of ribavirin or azithromycin | inhibition activity compared with ribavirin or azithromycin [5]: higher than the inhibition activity of ribavirin or azithromycin | inhibition activity compared with carrimycin [6]: close to the inhibition activities of carrimycin
